Here are results for 18 compounds from the Biogen ADME set (Fang et al. 2023).

The conditions of this data set: for aqueous solubility: pH 6.8.

Values after ≈ are worked out from the molar mass of the structure shown.

For the compound `CNC(=O)C1(Cc2ccc(-c3cccnc3)cc2)CCN(Cc2ccccc2Cl)C1` (stereo unspecified), the MDR1-MDCK efflux ratio turned out to be 0.961; the fraction unbound, human plasma is 0.0244; the fraction unbound, rat plasma was found to be 0.0188; the intrinsic clearance, human liver microsomes was 446 mL/min/kg. In addition, the intrinsic clearance, rat liver microsomes stood at 559 mL/min/kg.
By aqueous solubility is commonly meant the dissolved amount per volume that the medium holds. Low values mean little dissolved substance, high ones much dissolved substance. As to `O=C(NCCc1cn2c(n1)CCCC2)c1ccccn1`, the MDR1-MDCK efflux ratio worked out at 12.2; the intrinsic clearance, human liver microsomes is no more than 4.74 mL/min/kg; the intrinsic clearance, rat liver microsomes was determined as 26.7 mL/min/kg; the aqueous solubility is 47.6 µg/mL (≈ 176 µM).
`CCOc1ccc2nc3c(cc2c1)CN(CCOC)C(=O)O3` gave an intrinsic clearance, human liver microsomes of 12 mL/min/kg and an intrinsic clearance, rat liver microsomes of 215 mL/min/kg.
As for `COc1ccccc1N1CCN(c2nc(-c3ccc(F)cc3)cc(=O)[nH]2)CC1`, the MDR1-MDCK efflux ratio turned out to be 2.15 and the aqueous solubility worked out at 0.2 µg/mL (≈ 0.526 µM).
`C=CCN(C)CCCCCCOc1ccc(C(=O)c2ccc(Br)cc2)c(F)c1` gave an intrinsic clearance, human liver microsomes of 31.1 mL/min/kg; an intrinsic clearance, rat liver microsomes of 320 mL/min/kg; an aqueous solubility of 21.4 µg/mL (≈ 47.7 µM).
On to `COCC(=O)Nc1ccc(NC(=O)Cc2cc(C)ccc2C)cc1`, for which the MDR1-MDCK efflux ratio is 1.2; the intrinsic clearance, human liver microsomes turned out to be 36.6 mL/min/kg; the intrinsic clearance, rat liver microsomes was 76.6 mL/min/kg.
On the same counts, the results for `NC(=O)c1cccc(Cn2cnc3c(oc4ccccc43)c2=O)c1` are 13.9, no more than 4.74 mL/min/kg and 19 mL/min/kg.
With `O=C(Nc1nc(-c2ccccn2)cs1)c1ccc(F)cc1Cl`, the MDR1-MDCK efflux ratio was found to be 0.149; the intrinsic clearance, human liver microsomes turned out to be 82.2 mL/min/kg; the intrinsic clearance, rat liver microsomes came out at 127 mL/min/kg; the aqueous solubility was 5.16 µg/mL (≈ 15.5 µM).
On the same counts, the results for `NCc1cccnc1OCc1ccccc1` are 0.434, 11.7 mL/min/kg, 747 mL/min/kg and 25.5 µg/mL (≈ 119 µM).
On the same counts, the results for `CCC(CC)NC(=O)c1ccc2ncsc2c1` are 0.527, 7.3 mL/min/kg, 20.5 mL/min/kg and 22.2 µg/mL (≈ 89.4 µM).
On the same counts, the results for `c1ccc(-c2c(-c3ccc(OCCN4CCCC4)cc3)[nH]c3ncnc(NCC4SCCS4)c23)cc1` are 25, 80.2 mL/min/kg, 165 mL/min/kg and 3.72 µg/mL (≈ 7.19 µM).
With `CCOc1cccc(C(=O)Nc2ccc3c(c2)CCC(=O)N3C)c1`, the intrinsic clearance, human liver microsomes worked out at 12.2 mL/min/kg; the intrinsic clearance, rat liver microsomes was found to be 53.6 mL/min/kg; the aqueous solubility was found to be 9.14 µg/mL (≈ 28.2 µM).
For the compound `Cc1[nH]nc(CCC(=O)NCCCOC2CCCCC2)c1C`, the MDR1-MDCK efflux ratio turned out to be 18.2; the intrinsic clearance, human liver microsomes came out at 63.5 mL/min/kg; the intrinsic clearance, rat liver microsomes was determined as 4360 mL/min/kg.
On to `COc1ncccc1NC(=O)c1cccc(C)n1`, for which the intrinsic clearance, human liver microsomes was determined as 150 mL/min/kg; the intrinsic clearance, rat liver microsomes is 184 mL/min/kg; the aqueous solubility turned out to be 23.9 µg/mL (≈ 98.2 µM).
Regarding `Cc1ncccc1CNc1ccc(CC#N)cc1`, the MDR1-MDCK efflux ratio was determined as 0.534; the intrinsic clearance, human liver microsomes amounted to 18.2 mL/min/kg; the intrinsic clearance, rat liver microsomes was determined as 364 mL/min/kg.
Take `COc1ccc(C)cc1NC(=O)CN1CCc2ccccc2C1`: the MDR1-MDCK efflux ratio was 0.497; the intrinsic clearance, human liver microsomes worked out at 191 mL/min/kg; the intrinsic clearance, rat liver microsomes was 2320 mL/min/kg; the aqueous solubility was found to be 15.5 µg/mL (≈ 50 µM).
On the same counts, the results for `CSc1ccc(NC(=O)Cn2nc(C3CC3)ccc2=O)cc1` are 1.33, 175 mL/min/kg, 611 mL/min/kg and 4.75 µg/mL (≈ 15.1 µM).
As for `CC1(C)[C@@H]2C[C@H]1[C@@]1(O)[C@@H](C2)Oc2c(ccc(O)c2C(=O)NCCNS(C)(=O)=O)[C@@H]1O`, the MDR1-MDCK efflux ratio is 91; the intrinsic clearance, human liver microsomes came out at 29.3 mL/min/kg; the intrinsic clearance, rat liver microsomes was determined as 134 mL/min/kg.
